For 21 compounds, Ki results are on record in patent publication US8431567B2 (Abbott GmbH & Co. KG, priority 2006, dated 2013).

Where a name gives a salt, the structure may show the parent alone.

The target of the test is T1, human vasopressin V1b receptor (Homo sapiens, UniProt P47901).
T1 construct: expressed in transfected cells; host or cells: CHO-K1 (cell line hV1b_3H2_CHO), membrane preparation
T1 sequence (P47901 1-424): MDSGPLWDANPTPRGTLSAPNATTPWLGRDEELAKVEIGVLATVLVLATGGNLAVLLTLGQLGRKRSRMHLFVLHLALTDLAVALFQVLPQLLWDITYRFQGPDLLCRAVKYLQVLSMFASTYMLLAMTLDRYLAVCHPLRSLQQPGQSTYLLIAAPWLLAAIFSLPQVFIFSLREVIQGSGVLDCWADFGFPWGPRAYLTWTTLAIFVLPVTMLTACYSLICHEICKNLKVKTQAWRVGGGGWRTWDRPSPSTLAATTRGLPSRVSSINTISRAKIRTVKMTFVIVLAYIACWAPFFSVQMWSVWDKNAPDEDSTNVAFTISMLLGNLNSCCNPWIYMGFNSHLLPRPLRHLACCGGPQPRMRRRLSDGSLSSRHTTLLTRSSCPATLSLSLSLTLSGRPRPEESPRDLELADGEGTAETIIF
Kind of test: Vasopressin V1b receptor binding test. Particulars: membranes of CHO-K1 cells, displacement of 1.5 nM 3H-AVP. Put shortly:
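Radioligand competition binding to human V1b receptor membranes in 50 mM Tris, 10 mM MgCl2, 0.1% BSA, pH 7.4; nonspecific binding with 1 μM AVP.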
For `CCOc1ccc(OC)cc1C1(N2C[C@@H]3C[C@H]2CN3c2ccncc2)C(=O)N(S(=O)(=O)c2ccc(OC)cc2OC)c2ccc(C#N)cc21` (stereo partly drawn) [Example 52, 5-Cyano-1-(2,4-dimethoxy-benzenesulphonyl)-3-(2-ethoxy-5-methoxyphenyl)-3-((1S,4S)-5-pyridin-4-yl-2,5-diaza-bicyclo[2.2.1]hept-2-yl)-2,3-dihydro-1H-indol-2-one], the inhibition constant Ki is below 50 nM.
Then `CCOc1ccccc1C1(N2CCN(c3ccncc3)CC2)C(=O)N(S(=O)(=O)c2ccc(OC)cc2OC)c2ccc(-c3ccco3)cc21` (stereo not drawn) [Example 47, 1-(2,4-Dimethoxy-benzenesulphonyl)-3-(2-ethoxyphenyl)-5-furan-2-yl-3-(4-pyridin-4-yl-piperazin-1-yl)-1,3-dihydro-indol-2-one], with 50 to 500 nM; and `COc1ccc(S(=O)(=O)N2C(=O)C(c3cc(OC)ccc3OC)(N3CCN(c4ccncc4)CC3)c3cc(C#N)ccc32)c(OC)c1` (stereo not drawn) [Example 59, 5-Cyano-1-(2,4-dimethoxy-benzenesulphonyl)-3-(2,5-dimethoxyphenyl)-3-(4-pyridin-4-yl-piperazin-1-yl)-2,3-dihydro-1H-indol-2-one], with below 50 nM.
The result for `COc1ccc(S(=O)(=O)N2C(=O)C(c3ccccc3OC)(N3CCN(c4ccncc4)CC3)c3cc(Cl)ccc32)cc1OC` (stereo not drawn) [Example 12, 5-Chloro-1-(3,4-dimethoxy-benzenesulphonyl)-3-(2-methoxyphenyl)-3-(4-pyridin-4-yl-piperazin-1-yl)-1,3-dihydro-indol-2-one] reads 50 to 500 nM; that for `CCOc1ccc(OC)cc1C1(N2CCN(c3ccncc3)CC2)C(=O)N(S(=O)(=O)c2ccc(OC)cc2OC)c2ccc(C#N)cc21` (single isomer, unassigned; (+)) [Example 96, (+)-5-Cyano-1-(2,4-dimethoxy-benzenesulphonyl)-3-(2-ethoxy-5-methoxyphenyl)-3-(4-pyridin-4-yl-piperazin-1-yl)-2,3-dihydro-1H-indol-2-one], below 50 nM; that for `COc1ccc(S(=O)(=O)N2C(=O)C(c3cc(OC)ccc3OC(C)C)(N3CCN(c4ccncc4)CC3)c3cc(C#N)ccc32)c(OC)c1` (stereo not drawn) [Example 53, 5-Cyano-1-(2,4-dimethoxy-benzenesulphonyl)-3-(2-isopropoxy-5-methoxyphenyl)-3-(4-pyridin-4-yl-piperazin-1-yl)-2,3-dihydro-1H-indol-2-one], 50 to 500 nM.
The result for `CCOc1cc(F)ccc1C1(N2CCN(c3ccncc3)CC2)C(=O)N(S(=O)(=O)c2ccc(OC)cc2OC)c2ccc(C#N)cc21` (stereo not drawn) [Example 57, 5-Cyano-1-(2,4-dimethoxy-benzenesulphonyl)-3-(2-ethoxy-4-fluorophenyl)-3-(4-pyridin-4-yl-piperazin-1-yl)-2,3-dihydro-1H-indol-2-one] reads below 50 nM; that for `CCOc1ccc(OC)cc1C1(N2CCN(C3CCN(C)CC3)CC2)C(=O)N(S(=O)(=O)c2ccc(OC)cc2OC)c2ccc(C#N)cc21` (racemic) [Example 102, (±)-5-Cyano-1-(2,4-dimethoxy-benzenesulphonyl)-3-(2-ethoxy-5-methoxyphenyl)-3-[4-(1-methyl-piperidin-4-yl)-piperazin-1-yl]-2,3-dihydro-1H-indol-2-one], below 50 nM.
On to `CCOc1ccccc1C1(N2CCN(c3ccncc3)CC2)C(=O)N(S(=O)(=O)c2ccc(CC)cc2)c2ccc(C#N)cc21` (racemic) [Example 90, (±)-5-Cyano-3-(2-ethoxyphenyl)-1-(4-ethyl-benzenesulphonyl)-3-(4-pyridin-4-yl-piperazin-1-yl)-2,3-dihydro-1H-indol-2-one], for which the Ki lay within 50 to 500 nM.
The result for `CCOc1ccccc1C1(N2CCN(c3ccncc3)CC2)C(=O)N(S(=O)(=O)c2ccc(F)cc2)c2ccc(C#N)cc21` (stereo not drawn) [Example 15, 5-Cyano-3-(2-ethoxyphenyl)-1-(4-fluoro-benzenesulphonyl)-3-(4-pyridin-4-yl-piperazin-1-yl)-2,3-dihydro-1H-indol-2-one] reads 50 to 500 nM; that for `CCOc1ccc(OC)cc1C1(N2CCCN(c3ccnc(C)c3)CC2)C(=O)N(S(=O)(=O)c2ccc(OC)cc2OC)c2ccc(C#N)cc21` (racemic) [Example 95, (±)-5-Cyano-1-(2,4-dimethoxy-benzenesulphonyl)-3-(2-ethoxy-5-methoxyphenyl)-3-[4-(2-methyl-pyridin-4-yl)-[1.4]diazepan-1-yl]-2,3-dihydro-1H-indol-2-one], below 50 nM.
Compound `CCOc1ccccc1C1(N2CCN(c3ccncc3)CC2)C(=O)N(S(=O)(=O)c2ccc(OC)cc2OC)c2ccc(C#N)cc21` (stereo not drawn) [Example 10, 5-Cyano-1-(2,4-dimethoxy-benzenesulphonyl)-3-(2-ethoxyphenyl)-3-(4-pyridin-4-yl-piperazin-1-yl)-2,3-dihydro-1H-indol-2-one] came in with an inhibition constant (Ki) below 50 nM.
`COc1ccc(S(=O)(=O)N2C(=O)C(c3cc(C)ccc3OC)(N3CCN(c4ccncc4)CC3)c3cc(C#N)ccc32)c(OC)c1` (racemic) [Example 67, (±)-5-Cyano-1-(2,4-dimethoxy-benzenesulphonyl)-3-(2-methoxy-5-methylphenyl)-3-(4-pyridin-4-yl-piperazin-1-yl)-2,3-dihydro-1H-indol-2-one×trifluoroacetic acid] returned an inhibition constant Ki below 50 nM.
Turning to `CCOc1ccccc1C1(N2CCN(C3CCN(C)CC3)CC2)C(=O)N(S(=O)(=O)c2ccc(OC)cc2OC)c2ccc(C#N)cc21` (racemic) [Example 76, (±)-5-Cyano-1-(2,4-dimethoxy-benzenesulphonyl)-3-(2-ethoxyphenyl)-3-[4-(1-methyl-piperidin-4-yl)-piperazin-1-yl]-2,3-dihydro-1H-indol-2-one], the Ki was 50 to 500 nM.
The result for `CCOc1ccccc1C1(N2CCN(c3ccncc3)CC2)C(=O)N(S(=O)(=O)c2ccc(C#N)cc2)c2ccc(C#N)cc21` (stereo not drawn) [Example 7, 5-Cyano-1-(4-cyano-benzenesulphonyl)-3-(2-ethoxyphenyl)-3-(4-pyridin-4-yl-piperazin-1-yl)-2,3-dihydro-1H-indol-2-one] reads 50 to 500 nM; that for `CCOc1ccccc1C1(N2CCCN(c3ccncc3)CC2)C(=O)N(S(=O)(=O)c2ccc(OC)cc2OC)c2ccc(C#N)cc21` (stereo not drawn) [Example 56, 5-Cyano-1-(2,4-dimethoxy-benzenesulphonyl)-3-(2-ethoxyphenyl)-3-(4-pyridin-4-yl-[1.4]diazepan-1-yl)-2,3-dihydro-1H-indol-2-one], 50 to 500 nM; that for `CCOc1ccc(OC)cc1C1(N2CCN(c3ccnc(C)c3)CC2)C(=O)N(S(=O)(=O)c2ccc(OC)cc2OC)c2ccc(C#N)cc21` (stereo not drawn) [Example 50, 5-Cyano-1-(2,4-dimethoxy-benzenesulphonyl)-3-(2-ethoxy-5-methoxyphenyl)-3-[4-(2-methyl-pyridin-4-yl)-piperazin-1-yl]-2,3-dihydro-1H-indol-2-one], below 50 nM.
Then `CCOc1ccccc1C1(N2CCN(c3ccnc(C)c3)CC2)C(=O)N(S(=O)(=O)c2ccc(OC)cc2OC)c2ccc(C#N)cc21` (stereo not drawn) [Example 35, 5-Cyano-1-(2,4-dimethoxy-benzenesulphonyl)-3-(2-ethoxyphenyl)-3-[4-(2-methyl-pyridin-4-yl)-piperazin-1-yl]-2,3-dihydro-1H-indol-2-one], with 50 to 500 nM.
Then `COc1ccc(S(=O)(=O)N2C(=O)C(c3cc(OC)ccc3OC)(N3CCN(c4ccncc4)CC3)c3cc(C#N)ccc32)cc1` (stereo not drawn) [Example 63, 5-Cyano-3-(2,5-dimethoxyphenyl)-1-(4-methoxy-benzenesulphonyl)-3-(4-pyridin-4-yl-piperazin-1-yl)-2,3-dihydro-1H-indol-2-one], with below 50 nM; and `CCOc1ccc(OC)cc1C1(N2CCN(C3CCNCC3)CC2)C(=O)N(S(=O)(=O)c2ccc(OC)cc2OC)c2ccc(C#N)cc21` (racemic) [Example 100, (±)-5-Cyano-1-(2,4-dimethoxy-benzenesulphonyl)-3-(2-ethoxy-5-methoxyphenyl)-3-(4-piperidin-4-yl-piperazin-1-yl)-2,3-dihydro-1H-indol-2-one hydrochloride], with below 50 nM; and `CCOc1ccc(C)cc1C1(N2CCN(c3ccncc3)CC2)C(=O)N(S(=O)(=O)c2ccc(OC)cc2OC)c2ccc(C#N)cc21` (racemic) [Example 101, (±)-5-Cyano-1-(2,4-dimethoxy-benzenesulphonyl)-3-(2-ethoxy-5-methylphenyl)-3-(4-pyridin-4-yl-piperazin-1-yl)-2,3-dihydro-1H-indol-2-one], with below 50 nM.

What is called Ki is the dissociation constant of the complex between target and ligand, obtained from inhibition or displacement.
